The results in this text go back to patent US11235976B2, “Nanocarbon-iron composite system as well as composition, preparation method and use thereof” (Chongqing Lummy Pharmaceutical Co., LTD, priority 2017, dated 2022).

Assay [1] relates to subcutaneous transplantation tumors of 9 types of cancer cells. Put plainly: Tumor growth inhibition experiments, subcutaneous transplantation tumors. Format: in vivo, mice. The conditions noted are these: FIGS. 4-39. The procedure: Cells growing in a log phase are collected, the concentration of the cell suspension is adjusted to 3×10^7 cells/mL, and the cell suspension is inoculated subcutaneously into the right upper extremities of nude mice at the inoculation dosage of 0.1 mL (about 3×10^6 cells) per mouse. When the average tumor volume of the inoculated mice reaches 100 mm^3, the tumor-bearing mice are randomly divided into the following groups (8 nude mice per group): a negative control group (0.9% sodium chloride injection), a nanocarbon control group, an iron preparation control group, a nanocarbon-iron suspension experimental group, and a cis-platinum control group (intraperitoneal injection at the dosage of 5 mg/kg). The above various drugs are injected into the tumors. The tumor volume changes are recorded, and the formula for calculating the volume is Volume=(length×the square of width)/2.
Milky white and thick ascites is extracted from the H22 tumor-bearing mice, the concentration of the cell suspension is adjusted to be 3×10^7 cells/mL, 0.1 mL of cell suspension (about 3×10^6 cells) is inoculated subcutaneously into the right upper extremity of each of Kunming mice. When the average tumor volume of the inoculated mice reaches 100 mm^3, the tumor-bearing mice are randomly divided into the following groups (8 mice per group): a negative control group (0.9% sodium chloride injection), a nanocarbon control group, an iron preparation control group, a nanocarbon-iron suspension experimental group, and a cis-platinum control group (intraperitoneal injection at the dosage of 5 mg/kg). The above various drugs are injected into the tumors. The tumor volume changes are recorded, and the formula for calculating the volume is Volume=(length×the square of width)/2.

Assay [2] relates to H22 metastatic lymph nodes. In words: Lymph node metastasis inhibition experiment. The class given is in vivo, Kunming mouse. The conditions noted are these: popliteal lymph nodes. The procedure:
(§1) Milky white and thick ascites is extracted from the H22 tumor-bearing mice, the concentration is adjusted to be 3×10^7 cells/mL, 0.05 mL of cell suspension (about 1.5×10^6 cells) is inoculated subcutaneously into the left hind foot pads of each Kunming mouse, and thus a lymph node metastasis mouse model is obtained. The mice are treated when the diameter of the tumor reaches 6-8 mm and there is no ulcer and necrosis. The mice are randomly divided into four groups (10 mice per group): a negative control group (0.9% sodium chloride injection), a nanocarbon control group, an iron preparation control group and a nanocarbon-iron suspension experimental group. 10 days after inoculation, the mice are killed, and popliteal lymph nodes are collected, weighed and fixed for pathological examination.

Assay [3] relates to TPC-1 metastatic lymph nodes. Put plainly: Lymph node metastasis inhibition experiment. Format: in vivo, nude mouse. The settings on record: popliteal lymph nodes. The procedure: as §1, with “Cells growing in a log phase are collected,” for “Milky white and thick ascites is extracted from the H22 tumor-bearing mice,”, “concentration of the cell suspension” for “concentration”, “to” for “to be”, “the” for “0.05 mL of”, “suspension” for “suspension (about 1.5×10^6 cells)”, “nude mouse at the inoculation volume of 0.05 mL (about 1.5×10^6 cells)” for “Kunming mouse,”

The test system of assay [4] is Hela metastatic lymph nodes. In words: Lymph node metastasis inhibition experiment. The class given is in vivo, nude mouse. The conditions noted are these: popliteal lymph nodes. The procedure: as §1, with “Cells growing in a log phase are collected,” for “Milky white and thick ascites is extracted from the H22 tumor-bearing mice,”, “concentration of the cell suspension” for “concentration”, “to” for “to be”, “the” for “0.05 mL of”, “suspension” for “suspension (about 1.5×10^6 cells)”, “nude mouse at the inoculation volume of 0.05 mL (about 1.5×10^6 cells)” for “Kunming mouse,”

The test system of assay [5] is MDA-MB-231 metastatic lymph nodes. In words: Lymph node metastasis inhibition experiment. The class given is in vivo, nude mouse. The settings on record: popliteal lymph nodes. On the procedure:
as §1, with “Cells growing in a log phase are collected,” for “Milky white and thick ascites is extracted from the H22 tumor-bearing mice,”, “concentration of the cell suspension” for “concentration”, “to” for “to be”, “the” for “0.05 mL of”, “suspension” for “suspension (about 1.5×10^6 cells)”, “nude mouse at the inoculation volume of 0.05 mL (about 1.5×10^6 cells)” for “Kunming mouse,”

Assay [6] has as its system A549 metastatic lymph nodes. In words: Lymph node metastasis inhibition experiment. Format: in vivo, nude mouse. The settings on record: popliteal lymph nodes. The procedure:
as §1, with “Cells growing in a log phase are collected,” for “Milky white and thick ascites is extracted from the H22 tumor-bearing mice,”, “concentration of the cell suspension” for “concentration”, “to” for “to be”, “the” for “0.05 mL of”, “suspension” for “suspension (about 1.5×10^6 cells)”, “nude mouse at the inoculation volume of 0.05 mL (about 1.5×10^6 cells)” for “Kunming mouse,”

For assay [7], the system named is SGC-7901 metastatic lymph nodes. In words: Lymph node metastasis inhibition experiment. The class given is in vivo, nude mouse. The settings on record: popliteal lymph nodes. The procedure:
as §1, with “Cells growing in a log phase are collected,” for “Milky white and thick ascites is extracted from the H22 tumor-bearing mice,”, “concentration of the cell suspension” for “concentration”, “to” for “to be”, “the” for “0.05 mL of”, “suspension” for “suspension (about 1.5×10^6 cells)”, “nude mouse at the inoculation volume of 0.05 mL (about 1.5×10^6 cells)” for “Kunming mouse,”

The subject of assay [8] is HCT116 metastatic lymph nodes. In words: Lymph node metastasis inhibition experiment. The class given is in vivo, nude mouse. The conditions noted are these: popliteal lymph nodes. On the procedure: as §1, with “Cells growing in a log phase are collected,” for “Milky white and thick ascites is extracted from the H22 tumor-bearing mice,”, “concentration of the cell suspension” for “concentration”, “to” for “to be”, “the” for “0.05 mL of”, “suspension” for “suspension (about 1.5×10^6 cells)”, “nude mouse at the inoculation volume of 0.05 mL (about 1.5×10^6 cells)” for “Kunming mouse,”

Assay [9] has as its system SKOV3 metastatic lymph nodes. In words: Lymph node metastasis inhibition experiment. The class given is in vivo, nude mouse. The settings on record: popliteal lymph nodes. The procedure:
as §1, with “Cells growing in a log phase are collected,” for “Milky white and thick ascites is extracted from the H22 tumor-bearing mice,”, “concentration of the cell suspension” for “concentration”, “to” for “to be”, “the” for “0.05 mL of”, “suspension” for “suspension (about 1.5×10^6 cells)”, “nude mouse at the inoculation volume of 0.05 mL (about 1.5×10^6 cells)” for “Kunming mouse,”

For assay [10], the system named is SMMC-7721 metastatic lymph nodes. Put plainly: Lymph node metastasis inhibition experiment. The class given is in vivo, nude mouse. The conditions noted are these: popliteal lymph nodes. On the procedure: as §1, with “Cells growing in a log phase are collected,” for “Milky white and thick ascites is extracted from the H22 tumor-bearing mice,”, “concentration of the cell suspension” for “concentration”, “to” for “to be”, “the” for “0.05 mL of”, “suspension” for “suspension (about 1.5×10^6 cells)”, “nude mouse at the inoculation volume of 0.05 mL (about 1.5×10^6 cells)” for “Kunming mouse,”

Assay [11] concerns lymph node metastasis of 9 types of tumor cells. Put plainly: Lymph node metastasis inhibition experiment, summary. The class given is in vivo, mice. The procedure: as §1, with “Cells growing in a log phase are collected,” for “Milky white and thick ascites is extracted from the H22 tumor-bearing mice,”, “concentration of the cell suspension” for “concentration”, “to” for “to be”, “the” for “0.05 mL of”, “suspension” for “suspension (about 1.5×10^6 cells)”, “nude mouse at the inoculation volume of 0.05 mL (about 1.5×10^6 cells)” for “Kunming mouse,”
as §1

In assay [12] the test system is murine liver cancer H22 cells. Put plainly: Cell experiment, cell survival rate. Format: cell-based. The conditions noted are these: 48 h. The procedure:
(§2) Cells growing in a log phase are collected, the concentration of the cell suspension is adjusted, 100 μL of cell suspension is added to each well and the cells are plated (edge wells are filled with sterile PBS) at a density of 1×10^3-10^4 cells/well. The cells are incubated for 24 hours at 37° C. under the condition of 5% CO2, a nanocarbon-iron solution having a concentration gradient (nanocarbon content: 125, 62.5, 15.63 and 3.91 μg/mL; and ferric ion content: 13.65, 6.83, 1.71 and 0.43 μg/mL) is added, and three sub-wells are set. Then the cells are incubated for 48 hours at 37° C. under the condition of 5% CO2. 10 μL of CCK8 solution is added to each well and then the cells are continuously incubated for 2 hours. The absorbance of each well is measured at OD=450 nm with the microplate reader. In addition, a negative control group, nanocarbon control groups having the same concentration and iron preparation control groups having the same concentration are set.
as §2, with “and 1” for “100”, “of a 6-well plate” for “and the cells are plated (edge wells are filled with sterile PBS)”, “3×10^4” for “1×10^3-10^4”, “1.71,” for “1.71 and”, “The” for “10 μL of CCK8 solution is added to each well and then the”, “trypsinized and counted.” for “continuously incubated for 2 hours. The absorbance of each well is measured at OD=450 nm with the microplate reader.”

Assay [13] relates to SKOV3 ovarian cancer cells. Put plainly: Cell experiment, cell survival rate. Format: cell-based. The conditions noted are these: 48 h. The procedure: as §2
as §2, with “and 1” for “100”, “of a 6-well plate” for “and the cells are plated (edge wells are filled with sterile PBS)”, “3×10^4” for “1×10^3-10^4”, “1.71,” for “1.71 and”, “The” for “10 μL of CCK8 solution is added to each well and then the”, “trypsinized and counted.” for “continuously incubated for 2 hours. The absorbance of each well is measured at OD=450 nm with the microplate reader.”

For assay [14], the system named is HCT116 colon cancer cells. Put plainly: Cell experiment, cell survival rate. Format: cell-based. The settings on record: 48 h. The procedure:
as §2
as §2, with “and 1” for “100”, “of a 6-well plate” for “and the cells are plated (edge wells are filled with sterile PBS)”, “3×10^4” for “1×10^3-10^4”, “1.71,” for “1.71 and”, “The” for “10 μL of CCK8 solution is added to each well and then the”, “trypsinized and counted.” for “continuously incubated for 2 hours. The absorbance of each well is measured at OD=450 nm with the microplate reader.”

Setting [15] is: iron preparation alone 0.43 μg/mL.
Where [16] appears, read: iron preparation alone 1.71 μg/mL.
Where [17] appears, read: iron preparation alone 6.83 μg/mL.
Setting [18] is: iron preparation alone 13.65 μg/mL.

Consider ferrous gluconate, for which the “inhibition effect on growth of 9 types of tumors” value in [1] is “do not have an inhibition effect”. Further, the “Weight of Lymph Node” value in assay [2] is on record as 57.19 ± 15.92 mg; in [3], 40.16 ± 9.03 mg; in assay [4] it was 32.14 ± 21.36 mg; in [5], 40.19 ± 20.69 mg; in assay [6] it was 47.58 ± 20.34 mg; in [7], 52.14 ± 17.43 mg. Also, the results for the “Weight of Lymph Node” value in assay [8], in assay [9] and in assay [10] were 55.18 ± 20.12 mg, 33.57 ± 5.94 mg and 58.97 ± 19.63 mg, respectively. The “inhibition effect on the metastatic lymph nodes” value in [11] is “do not have an inhibition effect”. Besides, the “Cell Survival Rate” value in [12] (setting [15]) is recorded as 100%; in assay [12] (setting [16]) it was 100%; in assay [12] (setting [17]) it was 100%; in assay [12] (setting [18]), 96.14%; in assay [13] (setting [15]) it was 100%; in assay [13] (setting [16]), 100%. Moreover, the “Cell Survival Rate” value is 96.47% in assay [13] (setting [17]); 97.11% in [13] (setting [18]); 100% in assay [14] (setting [15]); 100% in assay [14] (setting [16]); 100% in [14] (setting [17]); 98.67% in assay [14] (setting [18]).
